Measurements from ChEMBL document CHEMBL1201862, “PubChem BioAssay data set” (2004).
The source made the active and inactive calls.

Legend:
Beta Lactamase = Beta Lactamase (Pseudomonas aeruginosa, UniProt Q932Y6); assay: BLA reporter interference, concentration series – BLA reporter cells, FRET fluorescence, artefact control for TLR9-MyD88 binding inhibitor project, dose response (AID 588341); type: cell-based;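 further: cell based assay in CHO-K1 cells stably expressing beta-lactamase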
BJ [1] = assay: BJ-TERT-LT-ST fibroblast viability loss – cell-based, RAS-independent, luminescence, dose response (AID 1935); type: functional; conditions: Homo sapiens;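 further: BJ fibroblasts immortalized with TERT plus LT and ST oncogenes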
CHO = CHO cell viability loss, potency – luminescence, cytotoxicity control for TLR9-MyD88 binding inhibitor project, dose response (AID 588339); type: functional, cell-based, hamster; conditions: Cricetulus griseus;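 further: CHO cells stably coexpressing TLR9 and MyD88 fusions from primary screen; compound exposure lasted 48 hours before viability readout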
BJ [2] = assay: BJ-TERT fibroblast viability loss – cell-based, RAS-independent, luminescence, dose response (AID 1933); type: functional; conditions: Homo sapiens
BJ [3] = assay: cells; type: functional, cell-based; conditions: Homo sapiens
[4] = DRD fibroblast viability loss – cell-based, non-viral oncogenic, luminescence, dose response (AID 1934); type: functional; conditions: Homo sapiens
[5] = molecular target: T1, Short transient receptor potential channel 4 (Mus musculus, UniProt Q9QUQ5); assay: calcium entry via TRPC4 opening agents – cell-based, HEK293 TRPC4/mu-opioid, Fluo-4 calcium, dose response (AID 434937); type: functional
T1 sequence (Q9QUQ5 whole entry): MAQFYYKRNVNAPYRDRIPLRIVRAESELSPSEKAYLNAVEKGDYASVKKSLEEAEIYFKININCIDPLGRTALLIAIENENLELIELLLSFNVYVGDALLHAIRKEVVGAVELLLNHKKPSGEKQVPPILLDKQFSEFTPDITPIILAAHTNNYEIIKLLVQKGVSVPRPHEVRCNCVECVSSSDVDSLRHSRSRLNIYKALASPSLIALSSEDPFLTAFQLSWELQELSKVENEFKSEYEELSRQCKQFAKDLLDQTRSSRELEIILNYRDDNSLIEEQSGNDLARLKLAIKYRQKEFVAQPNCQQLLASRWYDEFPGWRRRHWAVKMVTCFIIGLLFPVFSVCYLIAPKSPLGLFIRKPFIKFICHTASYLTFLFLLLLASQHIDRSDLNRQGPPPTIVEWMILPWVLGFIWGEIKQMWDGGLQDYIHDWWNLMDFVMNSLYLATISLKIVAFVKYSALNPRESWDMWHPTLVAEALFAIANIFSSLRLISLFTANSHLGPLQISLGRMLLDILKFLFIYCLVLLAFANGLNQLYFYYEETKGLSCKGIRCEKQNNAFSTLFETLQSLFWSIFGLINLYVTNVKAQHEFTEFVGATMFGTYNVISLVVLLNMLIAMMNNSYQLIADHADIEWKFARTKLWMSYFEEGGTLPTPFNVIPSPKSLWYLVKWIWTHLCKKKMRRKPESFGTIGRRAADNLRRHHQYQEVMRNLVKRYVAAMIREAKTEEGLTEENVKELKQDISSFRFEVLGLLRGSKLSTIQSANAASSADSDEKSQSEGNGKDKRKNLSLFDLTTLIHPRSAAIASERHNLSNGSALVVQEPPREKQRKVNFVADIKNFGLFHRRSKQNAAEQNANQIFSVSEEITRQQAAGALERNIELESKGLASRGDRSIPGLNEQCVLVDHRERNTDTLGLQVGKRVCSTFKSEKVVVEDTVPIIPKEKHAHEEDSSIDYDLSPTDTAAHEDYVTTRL

[6] = molecular target: T1, Short transient receptor potential channel 4; assay: block of DAMGO-driven TRPC4 calcium entry – cell-based, HEK293 TRPC4/mu-opioid, Fluo-4 calcium, dose response (AID 434942); type: functional;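 further: potency of inhibitors blocking the TRPC4 calcium response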
[7] = molecular target: Intestinal-type alkaline phosphatase (Homo sapiens, UniProt P09923); assay: human intestinal alkaline phosphatase activators, dose response, biochemical, luminescence, uHTS hits (AID 463120); type: functional
[8] = molecular target: T2, E3 ubiquitin-protein ligase XIAP (Homo sapiens, UniProt P98170); assay: Counter Screen using XIAP-Bir3 for Chemical Antagonists of Bir1/2 domains of IAP-family anti-apoptotic proteins. [Related pubchem assays (depositor defined):AID1018, AID1449, AID1514, AID1638, AID1749, AID1750, AID488957, AID488963]
[9] = molecular target: T2, E3 ubiquitin-protein ligase XIAP; assay: small molecules displacing peptide from XIAP – biochemical, IAP family, fluorescence polarization (AID 1018); type: functional
[10] = molecular target: T3, Kappa-type opioid receptor (Homo sapiens, UniProt P41145); assay: kappa opioid receptor activation potency – imaging, image-based, SAR follow-up (AID 2359); type: functional
[11] = molecular target: T4, Delta-type opioid receptor (Homo sapiens, UniProt P41143); assay: delta opioid receptor blockers – image-based, SAR follow-up (AID 2357); type: functional
[12] = molecular target: T3, Kappa-type opioid receptor; assay: kappa opioid receptor blockers, cell-based, luminescence, beta-arrestin, SAR follow-up (AID 2285); type: functional
[13] = molecular target: T3, Kappa-type opioid receptor; assay: kappa opioid receptor blockers, image-based, SAR follow-up (AID 2348); type: functional
Mu-type opioid receptor [14] = molecular target: T5, Mu-type opioid receptor (Homo sapiens, UniProt P35372); assay: mu opioid receptor blockers – image-based, SAR follow-up (AID 2420); type: functional;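 further: compounds added before stimulation of receptor with agonist DAMGO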
Mu-type opioid receptor [15] = molecular target: T5, Mu-type opioid receptor; assay: mu opioid receptor activators, image-based, SAR follow-up (AID 2352); type: functional
[16] = molecular target: T4, Delta-type opioid receptor; assay: DOR agonists, SAR follow-up, image-based (AID 2370); type: functional
[17] = molecular target: Type-1 angiotensin II receptor (Homo sapiens, UniProt P30556); assay: antagonism of angiotensin II type 1 receptor – cell-based, uHTS hits, selectivity assay for APJ receptor antagonist project, dose response (AID 463214); type: functional;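 further: antagonist potency against angiotensin II stimulated AT1 response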
Beta-galactosidase = Beta-galactosidase (Escherichia coli, UniProt Q8VNN2); assay: PubChem AID 485352; type: functional
[18] = viability of PTEN-deleted HCT116 cells – cell-based, HCT116 PTEN knockout, dose response (AID 1047); type: functional;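 further: HCT116 colon tumor cells with PTEN knocked out; cells exposed to compound for 60 hours before readout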
[19] = viability of HCT116 lacking mutant beta-catenin – cell-based, human colon tumor, dose response (AID 1045); type: functional;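 further: HCT116 colon tumor cells with beta catenin knocked out; cells exposed to compound for 60 hours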
[20] = molecular target: FAD-linked sulfhydryl oxidase ALR (Homo sapiens, UniProt P55789); assay: ALR-catalysed DTT oxidation blockers – biochemical, H2O2 detection, luminescence, cherry-pick, dose response (AID 493248)
Leucine aminopeptidase = molecular target: T6, Leucine aminopeptidase (Plasmodium falciparum 3D7, UniProt Q8IL11); assay: P. falciparum M17LAP inhibitors, primary screen, biochemical, fluorogenic H-Leu-NHMec substrate, 1536-well (AID 1619); type: functional
T6 sequence (Q8IL11 whole entry): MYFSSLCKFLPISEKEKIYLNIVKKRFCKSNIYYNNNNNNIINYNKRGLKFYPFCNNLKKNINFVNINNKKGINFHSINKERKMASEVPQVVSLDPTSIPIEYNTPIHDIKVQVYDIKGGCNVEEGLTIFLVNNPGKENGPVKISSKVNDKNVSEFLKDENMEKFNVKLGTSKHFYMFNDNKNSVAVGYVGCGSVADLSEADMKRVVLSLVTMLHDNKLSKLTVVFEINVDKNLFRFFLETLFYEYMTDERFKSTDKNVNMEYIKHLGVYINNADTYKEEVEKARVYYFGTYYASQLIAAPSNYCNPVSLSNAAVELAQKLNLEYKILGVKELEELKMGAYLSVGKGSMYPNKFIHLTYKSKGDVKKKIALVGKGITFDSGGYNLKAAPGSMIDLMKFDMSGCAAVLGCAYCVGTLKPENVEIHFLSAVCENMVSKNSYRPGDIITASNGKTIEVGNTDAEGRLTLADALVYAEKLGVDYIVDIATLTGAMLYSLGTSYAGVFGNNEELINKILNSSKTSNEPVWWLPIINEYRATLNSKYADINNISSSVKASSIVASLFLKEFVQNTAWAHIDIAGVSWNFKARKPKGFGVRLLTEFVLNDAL

Keap1/Nrf2 = Keap1/Nrf2 (Homo sapiens, UniProt Q14145); assay: disruptors of Keap1 binding to Nrf2 peptide – biochemical, fluorescence polarization, cherry-picked samples, dose response (AID 588683)
[21] = molecular target: T7, Zinc finger protein mex-5 (Caenorhabditis elegans, UniProt Q9XUB2); assay: potency of MEX-5 RNA-binding blockers – biochemical, C. elegans, fluorescence polarization, dose response (AID 1960)
T7 sequence (Q9XUB2 whole entry): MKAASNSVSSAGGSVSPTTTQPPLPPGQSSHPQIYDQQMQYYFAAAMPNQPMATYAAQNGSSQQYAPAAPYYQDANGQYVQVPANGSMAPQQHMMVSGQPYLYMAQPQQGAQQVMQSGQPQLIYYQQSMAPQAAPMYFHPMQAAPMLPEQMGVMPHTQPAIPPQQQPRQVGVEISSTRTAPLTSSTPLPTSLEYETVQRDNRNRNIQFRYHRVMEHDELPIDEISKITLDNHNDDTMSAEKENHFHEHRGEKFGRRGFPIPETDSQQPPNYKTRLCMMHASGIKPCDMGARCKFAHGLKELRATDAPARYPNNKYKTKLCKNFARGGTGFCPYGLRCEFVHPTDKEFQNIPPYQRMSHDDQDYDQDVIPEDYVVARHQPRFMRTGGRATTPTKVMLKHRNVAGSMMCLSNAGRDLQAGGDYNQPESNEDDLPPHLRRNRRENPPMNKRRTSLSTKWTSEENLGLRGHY

[22] = molecular target: T8, RNA-binding protein pos-1 (Caenorhabditis elegans, UniProt G5EF15); assay: disruptors of C. elegans POS-1 RNA interaction – biochemical, fluorescence polarization, dose response (AID 1964);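 further: purified POS-1 fused to maltose binding protein made in E. coli; potency of compounds blocking POS-1 binding to fluorescent RNA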
T8 sequence (G5EF15 whole entry): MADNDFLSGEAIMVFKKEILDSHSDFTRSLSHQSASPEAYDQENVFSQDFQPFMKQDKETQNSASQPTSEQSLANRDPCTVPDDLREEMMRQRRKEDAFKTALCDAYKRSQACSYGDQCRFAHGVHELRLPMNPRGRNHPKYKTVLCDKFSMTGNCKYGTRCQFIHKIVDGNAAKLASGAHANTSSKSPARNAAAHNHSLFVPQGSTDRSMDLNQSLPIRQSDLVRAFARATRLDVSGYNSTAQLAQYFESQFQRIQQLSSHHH

T4 sequence (P41143 whole entry): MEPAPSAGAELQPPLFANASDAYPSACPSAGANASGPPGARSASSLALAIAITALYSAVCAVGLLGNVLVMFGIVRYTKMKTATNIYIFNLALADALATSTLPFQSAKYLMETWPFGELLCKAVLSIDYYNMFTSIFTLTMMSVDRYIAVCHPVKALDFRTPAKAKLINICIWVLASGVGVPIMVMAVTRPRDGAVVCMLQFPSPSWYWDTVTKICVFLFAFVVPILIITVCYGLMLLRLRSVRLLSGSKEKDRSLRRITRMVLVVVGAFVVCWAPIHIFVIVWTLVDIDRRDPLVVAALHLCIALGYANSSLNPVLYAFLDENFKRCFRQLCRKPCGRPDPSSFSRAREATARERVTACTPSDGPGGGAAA
T2 sequence (P98170 whole entry): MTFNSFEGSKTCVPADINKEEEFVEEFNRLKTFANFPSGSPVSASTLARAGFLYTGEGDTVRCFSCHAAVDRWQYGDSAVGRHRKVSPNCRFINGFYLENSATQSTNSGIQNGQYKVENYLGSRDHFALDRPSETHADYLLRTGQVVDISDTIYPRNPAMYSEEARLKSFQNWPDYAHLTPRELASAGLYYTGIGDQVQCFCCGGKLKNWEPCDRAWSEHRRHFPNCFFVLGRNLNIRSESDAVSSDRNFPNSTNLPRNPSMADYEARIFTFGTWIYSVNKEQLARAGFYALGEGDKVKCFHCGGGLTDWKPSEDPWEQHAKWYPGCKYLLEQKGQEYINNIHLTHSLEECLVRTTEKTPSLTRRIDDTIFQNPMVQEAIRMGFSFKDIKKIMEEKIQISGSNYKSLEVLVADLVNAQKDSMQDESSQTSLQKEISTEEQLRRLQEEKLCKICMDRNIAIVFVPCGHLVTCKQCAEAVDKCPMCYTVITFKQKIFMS
T5 sequence (P35372 whole entry): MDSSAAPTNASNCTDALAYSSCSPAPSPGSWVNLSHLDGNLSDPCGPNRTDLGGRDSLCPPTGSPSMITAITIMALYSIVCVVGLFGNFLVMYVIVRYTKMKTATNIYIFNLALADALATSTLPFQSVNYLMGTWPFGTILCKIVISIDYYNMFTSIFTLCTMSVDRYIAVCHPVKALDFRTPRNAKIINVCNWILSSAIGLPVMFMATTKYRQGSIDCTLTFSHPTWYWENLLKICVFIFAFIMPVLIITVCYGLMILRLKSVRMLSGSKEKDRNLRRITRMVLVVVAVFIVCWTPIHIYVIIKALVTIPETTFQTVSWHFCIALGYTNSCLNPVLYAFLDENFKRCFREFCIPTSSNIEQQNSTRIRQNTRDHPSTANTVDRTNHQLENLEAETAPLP
T3 sequence (P41145 whole entry): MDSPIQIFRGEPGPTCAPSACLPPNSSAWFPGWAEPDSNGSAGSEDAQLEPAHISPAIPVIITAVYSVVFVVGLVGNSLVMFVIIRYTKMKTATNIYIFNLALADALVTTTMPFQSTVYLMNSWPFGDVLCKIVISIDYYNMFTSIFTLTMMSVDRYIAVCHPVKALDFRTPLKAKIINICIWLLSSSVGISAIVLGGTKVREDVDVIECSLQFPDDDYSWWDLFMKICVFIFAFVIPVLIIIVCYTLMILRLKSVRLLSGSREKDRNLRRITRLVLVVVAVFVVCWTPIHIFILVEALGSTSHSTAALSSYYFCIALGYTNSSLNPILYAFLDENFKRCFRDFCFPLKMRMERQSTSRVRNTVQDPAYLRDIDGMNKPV
Sequence of Beta-galactosidase (Q8VNN2 whole entry): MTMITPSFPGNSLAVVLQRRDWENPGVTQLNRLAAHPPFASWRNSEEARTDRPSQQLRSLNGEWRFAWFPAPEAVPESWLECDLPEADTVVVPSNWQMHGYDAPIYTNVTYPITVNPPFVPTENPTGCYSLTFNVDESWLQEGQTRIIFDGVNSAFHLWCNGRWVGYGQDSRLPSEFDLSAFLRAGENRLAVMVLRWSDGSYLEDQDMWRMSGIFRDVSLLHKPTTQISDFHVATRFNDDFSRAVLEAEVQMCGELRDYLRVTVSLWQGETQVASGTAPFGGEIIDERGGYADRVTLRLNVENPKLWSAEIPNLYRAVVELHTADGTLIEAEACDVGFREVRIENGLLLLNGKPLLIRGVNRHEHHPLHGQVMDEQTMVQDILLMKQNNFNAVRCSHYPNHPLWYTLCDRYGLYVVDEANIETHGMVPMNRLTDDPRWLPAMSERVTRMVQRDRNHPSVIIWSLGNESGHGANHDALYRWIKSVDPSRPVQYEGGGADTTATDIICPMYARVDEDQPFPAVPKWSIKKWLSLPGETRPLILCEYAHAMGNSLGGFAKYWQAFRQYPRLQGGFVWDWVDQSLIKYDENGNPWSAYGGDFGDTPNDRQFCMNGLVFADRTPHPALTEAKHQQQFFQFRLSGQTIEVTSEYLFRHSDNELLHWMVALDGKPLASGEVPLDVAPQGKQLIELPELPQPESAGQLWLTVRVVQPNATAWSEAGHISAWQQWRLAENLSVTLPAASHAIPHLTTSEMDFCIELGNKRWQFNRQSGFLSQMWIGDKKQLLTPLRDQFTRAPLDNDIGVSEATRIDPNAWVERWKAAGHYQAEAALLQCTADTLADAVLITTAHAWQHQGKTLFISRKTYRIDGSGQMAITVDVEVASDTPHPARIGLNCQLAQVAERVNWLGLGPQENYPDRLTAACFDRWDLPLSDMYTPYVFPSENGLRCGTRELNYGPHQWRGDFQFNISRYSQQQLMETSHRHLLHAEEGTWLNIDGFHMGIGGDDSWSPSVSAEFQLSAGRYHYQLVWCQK
Sequence of Keap1/Nrf2 (Q16236 whole entry): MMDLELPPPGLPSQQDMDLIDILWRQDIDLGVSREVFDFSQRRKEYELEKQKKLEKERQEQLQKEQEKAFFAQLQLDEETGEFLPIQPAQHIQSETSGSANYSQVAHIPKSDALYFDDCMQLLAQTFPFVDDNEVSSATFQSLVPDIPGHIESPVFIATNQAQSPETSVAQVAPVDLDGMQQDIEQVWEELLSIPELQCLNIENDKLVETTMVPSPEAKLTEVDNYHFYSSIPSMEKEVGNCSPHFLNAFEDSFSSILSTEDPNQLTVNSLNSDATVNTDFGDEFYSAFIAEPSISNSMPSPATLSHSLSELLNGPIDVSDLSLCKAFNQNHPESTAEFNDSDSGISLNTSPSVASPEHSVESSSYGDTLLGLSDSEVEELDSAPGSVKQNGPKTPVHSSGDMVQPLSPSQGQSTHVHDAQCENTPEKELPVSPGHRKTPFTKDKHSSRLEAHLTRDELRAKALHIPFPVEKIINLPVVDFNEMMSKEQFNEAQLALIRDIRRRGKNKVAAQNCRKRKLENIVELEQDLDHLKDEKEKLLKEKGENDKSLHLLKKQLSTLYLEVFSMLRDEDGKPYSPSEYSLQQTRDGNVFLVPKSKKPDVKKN
Sequence of Keap1/Nrf2 (Q14145 whole entry): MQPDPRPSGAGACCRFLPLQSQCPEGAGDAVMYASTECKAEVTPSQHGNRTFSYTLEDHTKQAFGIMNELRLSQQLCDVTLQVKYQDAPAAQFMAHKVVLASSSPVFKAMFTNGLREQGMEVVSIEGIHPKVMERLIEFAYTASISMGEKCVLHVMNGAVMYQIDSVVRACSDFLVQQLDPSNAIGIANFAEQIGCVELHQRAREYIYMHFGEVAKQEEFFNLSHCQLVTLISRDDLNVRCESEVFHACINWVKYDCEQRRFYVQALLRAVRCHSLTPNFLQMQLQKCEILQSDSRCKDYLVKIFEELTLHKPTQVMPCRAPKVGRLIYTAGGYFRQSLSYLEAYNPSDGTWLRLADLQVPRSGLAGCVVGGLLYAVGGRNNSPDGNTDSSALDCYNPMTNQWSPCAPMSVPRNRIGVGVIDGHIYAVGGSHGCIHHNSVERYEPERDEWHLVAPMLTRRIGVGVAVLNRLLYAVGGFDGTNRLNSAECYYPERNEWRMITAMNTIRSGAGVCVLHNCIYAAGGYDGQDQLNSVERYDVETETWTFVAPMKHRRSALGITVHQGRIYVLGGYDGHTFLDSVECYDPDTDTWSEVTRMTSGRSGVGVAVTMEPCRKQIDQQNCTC
Sequence of Type-1 angiotensin II receptor (P30556 whole entry): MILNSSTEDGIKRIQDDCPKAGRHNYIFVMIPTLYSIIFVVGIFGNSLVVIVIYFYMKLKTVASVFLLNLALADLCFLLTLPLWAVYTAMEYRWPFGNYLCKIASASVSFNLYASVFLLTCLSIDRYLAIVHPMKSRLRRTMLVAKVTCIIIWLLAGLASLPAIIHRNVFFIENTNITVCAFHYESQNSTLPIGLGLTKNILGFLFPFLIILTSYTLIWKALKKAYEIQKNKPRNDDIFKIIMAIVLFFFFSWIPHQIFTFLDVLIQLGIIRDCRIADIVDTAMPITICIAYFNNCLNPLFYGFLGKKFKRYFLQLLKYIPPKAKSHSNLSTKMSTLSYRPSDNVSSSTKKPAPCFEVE
Sequence of FAD-linked sulfhydryl oxidase ALR (P55789 whole entry): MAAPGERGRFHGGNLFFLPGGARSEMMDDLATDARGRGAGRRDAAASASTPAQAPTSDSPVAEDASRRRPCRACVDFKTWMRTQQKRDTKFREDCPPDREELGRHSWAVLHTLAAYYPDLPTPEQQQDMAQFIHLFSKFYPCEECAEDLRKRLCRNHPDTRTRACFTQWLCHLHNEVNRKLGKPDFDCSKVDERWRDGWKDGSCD
Sequence of Beta Lactamase (Q932Y6 whole entry): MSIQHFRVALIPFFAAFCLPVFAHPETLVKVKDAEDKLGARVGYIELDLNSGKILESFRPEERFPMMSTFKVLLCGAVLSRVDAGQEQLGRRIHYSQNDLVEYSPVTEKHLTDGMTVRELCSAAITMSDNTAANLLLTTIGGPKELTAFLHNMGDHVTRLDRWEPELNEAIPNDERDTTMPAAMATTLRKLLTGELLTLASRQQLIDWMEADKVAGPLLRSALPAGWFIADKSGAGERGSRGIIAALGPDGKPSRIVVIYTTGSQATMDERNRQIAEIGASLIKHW

Cc1ccc(Cl)c(NC(=O)COC(=O)c2ccccc2C(=O)c2ccc(Cl)c([N+](=O)[O-])c2)c1Cl
IC50 (Beta Lactamase): > 49.8 µM (inactive) | EC50 (BJ [1]): 3.87 µM (inconclusive) | IC50 (CHO): 12.6 µM (inactive) | EC50 (BJ [2]): 2.71 µM (active) | EC50 (BJ [3]): 16.8 µM (inconclusive) | EC50 [4]: 7.58 µM (active)

C/C(=N/NC(=O)c1ccc(Cn2cccn2)o1)c1cccc(NC(=O)c2ccncc2)c1
EC50 [5]: 5.31 µM (active) | EC50 [6]: 3.76 µM (active) | EC50 [7]: > 100 µM (inactive)

O=[N+]([O-])c1ccccc1S(=O)(=O)N1CCCCC1
IC50 [8]: > 100 µM (inactive) | IC50 [9]: > 100 µM (not active)

O=C(NC(NC(=S)Nc1ccc(F)cc1)C(Cl)(Cl)Cl)OCc1ccccc1 (centres undefined)
EC50 [10]: > 32 µM (inactive) | IC50 [11]: > 32 µM (inactive) | IC50 [12]: > 10 µM (inactive) | IC50 [13]: 6.02 µM (active) | IC50 (Mu-type opioid receptor [14]): > 32 µM (inactive) | EC50 (Mu-type opioid receptor [15]): > 32 µM (inactive) | EC50 [16]: > 32 µM (inactive)

Cc1cccc(NC(=S)NNc2ncc(C(F)(F)F)cc2Cl)c1
IC50 [17]: 13.1 µM (active) | EC50 (Beta-galactosidase): > 40 µM (inactive)

COc1ccc(S(=O)(=O)NCc2ccc(C(=O)N3CCN(Cc4ccccc4)CC3)cc2)cc1
EC50 [10]: > 32 µM (inactive) | IC50 [11]: > 32 µM (inactive) | IC50 [12]: > 10 µM (inactive) | IC50 [13]: > 32 µM (inactive) | IC50 (Mu-type opioid receptor [14]): > 32 µM (inactive) | EC50 (Mu-type opioid receptor [15]): > 32 µM (inactive) | EC50 [16]: > 32 µM (inactive)

O=C1Nc2ccc(Br)cc2/C1=N/N=C/C1=C(N2CCOCC2)C(=C\c2ccccc2)/CC1
EC50 [18]: 9.88 µM (active) | EC50 [19]: 11.4 µM (active) | IC50 [17]: > 40 µM (not active) | EC50 (Beta-galactosidase): > 40 µM (inactive)

CSc1cccc(NC(=O)CN2C(=O)c3ccccc3S2(=O)=O)c1
AC50 [20]: 2.37 µM (active) | IC50 [8]: > 100 µM (inactive) | IC50 [9]: > 100 µM (not active) | IC50 (Leucine aminopeptidase): 5.87 µM (active)

COc1ccc(Nc2nc(-c3cccnc3)nc3ccccc23)cn1
AC50 (Keap1/Nrf2): > 52 µM (inactive) | EC50 [21]: 8.22 µM (active) | EC50 [22]: 12.4 µM (active)

COc1cccc(/C=C/C(=O)OCC(=O)NC(=O)NC2CCCC2)c1
AC50 (Keap1/Nrf2): > 52 µM (inactive)
